# Experimental data reported in patent US20050113256A1, “Methods of reducing the nicotine content of tobacco plants and tobacco plants obtained thereby” (priority 2003, published 2005).
# Columns and labels:
# [1] = tested on: parasitoids (wasps) (Cotesia glomerate); test: Attraction of parasitoids (wasps) to cabbage plants treated with β-glucosidase; format: in vivo; details: amount of β-glucosidase in 25 μl
# Text: We have discovered that generic defense mechanisms are elicited by herbivores such as caterpillars. In this example, a caterpillar (Pieris brassicae) attacked a cabbage plant releasing a defensive mixture of volatiles which attract parasitic wasps (Cotesia glomerate) which then attack and destroy the caterpillars. The caterpillar gut regurgitant contains enzymatic β-glucosidase which elicits the mixture of volatiles referred to above. Commercial β-glucosidase performs in a similar manner.
# Cabbage (eight weeks old) and P. Brassicae (caterpillar) and parasitoids (wasps) were reared according to the method of Steinberg S. et al., Entomol. Exp. Appl 63 163-175 (1992). […] Ion chromatograms identified […], 1-hexanol, E-2-hexene 1-YL acetate as major components of the volatiles released by the cabbage plants. This experiment illustrates another specific example (compare to H. zea) of evolutionary arms race wherein an elicitor-antagonist biological system focuses on a defensive enzyme reaction.
# [2] = tested on: tobacco leaves (Nicotiana tabacum); test: Treatment of individual tobacco leaves with test solutions, nicotine reduction; format: in vivo; details: incubated for about 3 days
# [3] = tested on: transgenic tobacco plant leaves; details: transgenic tobacco leaves starting at 0.05 mg per gram; one GOX-leaf bruising treatment
# Text: One group of the tobacco plants was exposed to H. zea neonates for a three day period during the growing season. A second group of the tobacco plants was exposed to H. zea neonates multiple times each for a three-day period during the growing season. A third group of tobacco plants was isolated from H. zea neonates for establishing a control. The leaves were harvested at the end of the growing season and the caterpillars were removed. The tobacco leaves were air dried and processed. Each of the dried tobacco leaves were treated and extracted with 10 ml of 25 mM sodium phosphate buffer at 30° C. for about 24 hours at constant agitation.
Substance,attraction of parasitoids (wasps) [1],Reduction of Nicotine [2] [mg/g],nicotine content after treatment [3]
β-glucosidase,clearly resulted in the attraction of parasitoids,–,–
glucose oxidase [Active GOX],–,0.60 to 0.70,0.01 mg of nicotine/per gram
